Experimental data: patent US11066447B2, “Aureobasidium derivatives and methods of synthesis” (AureoGen Biosciences, Inc., priority 2016, dated 2021)
In brackets after ≈: the same amount, converted by molar mass. Read-outs that look alike come from different tables or passages of the source. Numbered stars: 1 amine (or outer) side, 2 acyl side, 3 side chain; on linkers, the order of the positions; unused ones are H or OH. Square brackets hold non-standard residues; d marks the D form. Peptide text beside a SMILES is read from it. X35 = CN([C@@H](Cc1cccc(-c2ccc(-n3c4ccccc4c4ccccc43)cc2)c1)C(=O)[*:2])[*:1]; X28 = CN([C@@H](Cc1cccc(-c2ccc(C(F)(F)F)cc2)c1)C(=O)[*:2])[*:1]; X31 = CN([C@@H](Cc1cccc(-c2cccc(C(F)(F)F)c2)c1)C(=O)[*:2])[*:1]; X27 = CN([C@@H](Cc1cccc(-c2cccc3ccccc23)c1)C(=O)[*:2])[*:1]; X33 = CN([C@@H](Cc1cccc(-c2ccc3ccccc3c2)c1)C(=O)[*:2])[*:1]; X32 = CN([C@@H](Cc1cccc(-c2cccc(F)c2)c1)C(=O)[*:2])[*:1]; Hmp(2R,3S) = CC[C@H](C)[C@@H](O)C(=O)O; NMeVal(β-OH) = CN[C@H](C(=O)O)C(C)(C)O; NMeV = CN[C@H](C(=O)O)C(C)C

Legend:
[1] = system: A. flavus MMX 5948; assay: MIC/MEC assay (CLSI microdilution); type: cell-based; conditions: Aspergillus flavus, MMX5948, 48 h; for minimal effective concentration: RPMI plus 0.002% Tween-80; for MIC: RPMI plus 0.002% Tween-80, read-out: MIC
Description: (§1) Aureobasidin and test compounds (i.e., AbA derivatives of the present invention) were received from Kalexsyn, Inc. (Kalamazoo, Mich.) as powder and were stored at 4° C. until the day of assay. […] amphotericin was obtained from Sigma Aldrich and stored under like conditions. […] Ethanol (95%) was used as a solvent and diluent for all AbA compounds. Amphotericin B was tested from 0.06-64 μg/mL. Amphotericin B (Sigma Aldrich; St. Louis, Mo.; Cat No. A9528-100MG, Lot No. 120M4087) was dissolved and diluted with dimethylsulfoxide (DMSO; Sigma Aldrich; St. Louis, Mo.; Cat No. 472301 Lot No. SHBD2072V).
(§2) The solvents were added to the test agents and the stock solutions stood for approximately 1 hr at room temperature prior to use to auto sterilize. Stock solutions were prepared at 40× the desired top concentration in the test plate.
(§3) All of the test isolates were originally received from either the American Type Culture Collection (ATCC), clinical labs, or directly from Aureogen Biosciences. Organisms stored by Micromyx were cultured on agar medium appropriate to each organism. Colonies were picked by swab from the isolation plates and put into suspension in appropriate broth containing cryoprotectant. The suspensions were aliquoted into cryogenic vials and maintained at −80° C.
(§4) Prior to testing, Candida isolates were streaked from the frozen vials on Sabouraud dextrose agar. The yeast isolates were incubated for 48 hours at 35° C. before use. The fungal isolates were obtained from enumerated fungal stocks previously prepared at Micromyx and stored in phosphate buffered saline at 4° C.
(§5) Test Media. The medium employed for the MIC assay was RPMI-1640 medium from HyClone Laboratories (Logan, Utah; Lot No. AYB60287A). The medium was prepared according to Clinical and Laboratory Standards Institute (CLSI) guidelines (1, 2), and modified to include 0.002% Tween-80. Candida parapsilosis ATCC 22019 (MMX 2323) and Aspergillus fumigatus ATCC MYA-3626 (MMX 5280) were also tested without Tween-80 to provide data for the quality control of amphotericin B in accordance with CLSI (3) and to assess the effect of Tween-80 on the activity of the test agents.
(§6) Test Procedure. The MIC assay method followed the procedure described by CLSI (1, 2) and employed automated liquid handlers to conduct serial dilutions and liquid transfers. Automated liquid handlers included the Multidrop 384 (Labsystems, Helsinki, Finland), Biomek 2000 and Biomek FX (Beckman Coulter, Fullerton Calif.). The wells in columns 2-12 in standard 96-well microdilution plates (Costar 3795) were filled with 150 μl of the appropriate diluent (95% EtOH for investigational compounds, 100% DMSO for amphotericin B). These assay plates would become the ‘mother plates’ from which the assay ‘daughter plates’ would be prepared. The drugs (300 μL at 40× the desired top concentration in the test plates) were dispensed into the appropriate well in Column 1 of the mother plates. The Biomek 2000 was used to make two-fold serial dilutions through Column 11 in the “mother plate”. The wells of Column 12 contained no drug and served as the organism growth control wells.
(§7) The daughter plates were loaded with 185 μL per well on the Multidrop 384 with RPMI plus 0.002% Tween-80 or RPMI containing no Tween-80 for the testing of the two QC isolates. The daughter plates were prepared on the Biomek FX instrument which transferred 5 μL of drug solution from each well of a mother plate to each corresponding well of each daughter plate in a single step.
(§8) A standardized inoculum of each organism was prepared per CLSI methods (1, 2). For the Candida isolates, colonies were picked from the streak plate and a suspension was prepared in RPMI to equal a 0.5 McFarland standard. This suspension was diluted 1:100 in RPMI resulting in a final concentration of approximately 0.5-2.5×10^3 CFU/mL. […]

[2] = system: A. fumigatus MMX 6782 ATCC 13073; assay: MIC/MEC assay (CLSI microdilution); type: cell-based; conditions: Aspergillus fumigatus, ATCC13073, 48 h; for minimal effective concentration: RPMI plus 0.002% Tween-80, read-out: MEC; for MIC: RPMI plus 0.002% Tween-80, read-out: MIC
Description: as §1, §2, §3, §4, §5, §6, §7, §8

[3] = system: A. fumigatus MMX 6781 ATCC MYA-4609; assay: MIC/MEC assay (CLSI microdilution); type: cell-based; conditions: Aspergillus fumigatus; for MIC: 48 h, RPMI plus 0.002% Tween-80, read-out: MIC; for minimal effective concentration: RPMI plus 0.002% Tween-80, 48 hr
Description: as §1, §2, §3, §4, §5, §6, §7, §8

[4] = system: A. fumigatus MMX 5944; assay: MIC/MEC assay (CLSI microdilution); type: cell-based; conditions: Aspergillus fumigatus, MMX5944, 48 h; for minimal effective concentration: RPMI plus 0.002% Tween-80; for MIC: RPMI plus 0.002% Tween-80, read-out: MIC
Description: as §1, §2, §3, §4, §5, §6, §7, §8

[5] = system: A. niger MMX 0624 ATCC 16888; assay: MIC/MEC assay (CLSI microdilution); type: cell-based; conditions: for minimal effective concentration: RPMI plus 0.002% Tween-80, read-out: MEC
Description: as §1, §2, §3, §4, §5, §6, §7, §8

[6] = system: A. fumigatus MMX 5280 ATCC MYA-3626; assay: MIC/MEC assay (CLSI microdilution); type: cell-based, Aspergillus fumigatus; conditions: Aspergillus fumigatus, 48 h
Description: as §1, §2, §3, §4, §5, §6, §7, §8

[7] = system: C. parapsilosis MMX 2323 ATCC 22019; assay: MIC assay (CLSI microdilution); type: cell-based, Candida parapsilosis; conditions: read-out: MIC
Description: as §1, §2, §3, §4, §5, §6, §7, §8

[8] = system: C. neoformans MMX 0634 ATCC 90112; assay: MIC assay (CLSI microdilution); type: cell-based; conditions: Cryptococcus neoformans, ATCC90112, RPMI plus 0.002% Tween-80; read-out: MIC
Description: as §1, §2, §3, §4, §5, §6, §7, §8

[9] = system: C. albicans MMX 2000 ATCC 10231; assay: MIC assay (CLSI microdilution); type: cell-based; conditions: Candida albicans, ATCC10231, RPMI plus 0.002% Tween-80; read-out: MIC
Description: as §1, §2, §3, §4, §5, §6, §7, §8

[10] = RPMI plus 0.002% Tween-80, 48 hr
[11] = RPMI plus 0.002% Tween-80, read-out: MEC
[12] = RPMI plus 0.002% Tween-80, read-out: MIC
[13] = Without Tween-80, read-out: MEC
[14] = Without Tween-80, read-out: MIC
[15] = ATCC22019, RPMI plus 0.002% Tween-80
[16] = Aspergillus niger, ATCC16888, 48 h
[17] = Aspergillus niger, ATCC16888, 48 h, RPMI plus 0.002% Tween-80, read-out: MIC

SMILES | minimal effective concentration [1] [µg/mL] | MIC [1] [µg/mL] | minimal effective concentration [2] [µg/mL] | MIC [2] [µg/mL] | MIC [3] [µg/mL] | minimal effective concentration [3] [µg/mL] | minimal effective concentration [4] [µg/mL] | MIC [4] [µg/mL] | MEC [5, 10] | MIC [5, 10] | minimal effective concentration [6, 11] [µg/mL] | MIC [6, 12] [µg/mL] | minimal effective concentration [6, 13] [µg/mL] | MIC [6, 14] [µg/mL] | MIC [7, 15] [µg/mL] | MIC ([7]; ATCC22019, Without Tween-80) [µg/mL] | MIC [8] [µg/mL] | MIC [9] [µg/mL] | minimal effective concentration [5, 16] [µg/mL] | MIC [5, 17] [µg/mL]
CC[C@H](C)[C@@H]1NC(=O)[C@@H]2CCCN2C(=O)[C@H](Cc2cccc(-c3ccc(C(F)(F)F)cc3)c2)N(C)C(=O)[C@H](Cc2ccccc2)NC(=O)[C@H](C(C)C)N(C)C(=O)[C@@H]([C@@H](C)CC)OC(=O)[C@H](C(C)(C)O)N(C)C(=O)[C@H](CC(C)C)NC(=O)[C@H](C(C)C)N(C)C1=O [Compound 3] (cyclo(F[X28]PI[NMeV]L[NMeVal(β-OH)][Hmp(2R,3S)][NMeV])) | > 64 | > 64 | > 64 | > 64 | > 64 | > 64 | > 64 | > 64 | 1/1 μg/mL | 1/1 μg/mL | > 64 | > 64 | > 64 | > 64 | 0.5 | 2 (≈ 1.61 µM) | 0.12 | 0.12 | – | –
CC[C@H](C)[C@@H]1NC(=O)[C@@H]2CCCN2C(=O)[C@H](Cc2cccc(-c3cccc(C(F)(F)F)c3)c2)N(C)C(=O)[C@H](Cc2ccccc2)NC(=O)[C@H](C(C)C)N(C)C(=O)[C@@H]([C@@H](C)CC)OC(=O)[C@H](C(C)(C)O)N(C)C(=O)[C@H](CC(C)C)NC(=O)[C@H](C(C)C)N(C)C1=O [Compound 4] (cyclo(F[X31]PI[NMeV]L[NMeVal(β-OH)][Hmp(2R,3S)][NMeV])) | > 64 | > 64 | 1 | > 64 | > 64 | > 64 | 1 | > 64 | – | – | > 64 | > 64 | > 64 | > 64 | 0.5 | 2 (≈ 1.61 µM) | 0.25 | 0.12 | 0.5 | 0.5
CC[C@H](C)[C@@H]1NC(=O)[C@@H]2CCCN2C(=O)[C@H](Cc2cccc(-c3ccc4ccccc4c3)c2)N(C)C(=O)[C@H](Cc2ccccc2)NC(=O)[C@H](C(C)C)N(C)C(=O)[C@@H]([C@@H](C)CC)OC(=O)[C@H](C(C)(C)O)N(C)C(=O)[C@H](CC(C)C)NC(=O)[C@H](C(C)C)N(C)C1=O [Compound 5] (cyclo(F[X33]PI[NMeV]L[NMeVal(β-OH)][Hmp(2R,3S)][NMeV])) | 0.5 | 1 | 0.5 | > 64 | > 64 | 0.5 | 0.5 | > 64 | – | – | 0.5 | > 64 | 4 | > 64 | 0.5 | 2 (≈ 1.63 µM) | 0.12 | 0.12 | 0.5 | 0.5
CC[C@H](C)[C@@H]1NC(=O)[C@@H]2CCCN2C(=O)[C@H](Cc2cccc(-c3cccc(F)c3)c2)N(C)C(=O)[C@H](Cc2ccccc2)NC(=O)[C@H](C(C)C)N(C)C(=O)[C@@H]([C@@H](C)CC)OC(=O)[C@H](C(C)(C)O)N(C)C(=O)[C@H](CC(C)C)NC(=O)[C@H](C(C)C)N(C)C1=O [Compound 7] (cyclo(F[X32]PI[NMeV]L[NMeVal(β-OH)][Hmp(2R,3S)][NMeV])) | > 64 | > 64 | 0.5 | > 64 | > 64 | 1 | 0.5 | > 64 | – | – | 2 | > 64 | 64 | > 64 | 0.12 | 1 (≈ 0.836 µM) | 0.12 | 0.015 | 0.25 | 0.25
CC[C@H](C)[C@@H]1NC(=O)[C@@H]2CCCN2C(=O)[C@H](Cc2cccc(-c3ccc(-n4c5ccccc5c5ccccc54)cc3)c2)N(C)C(=O)[C@H](Cc2ccccc2)NC(=O)[C@H](C(C)C)N(C)C(=O)[C@@H]([C@@H](C)CC)OC(=O)[C@H](C(C)(C)O)N(C)C(=O)[C@H](CC(C)C)NC(=O)[C@H](C(C)C)N(C)C1=O [Compound 8] (cyclo(F[X35]PI[NMeV]L[NMeVal(β-OH)][Hmp(2R,3S)][NMeV])) | > 64 | > 64 | > 64 | > 64 | > 64 | > 64 | > 64 | > 64 | – | – | > 64 | > 64 | > 64 | > 64 | > 64 | > 64 | > 64 | > 64 | > 64 | > 64
CC[C@H](C)[C@@H]1NC(=O)[C@@H]2CCCN2C(=O)[C@H](Cc2cccc(-c3cccc4ccccc34)c2)N(C)C(=O)[C@H](Cc2ccccc2)NC(=O)[C@H](C(C)C)N(C)C(=O)[C@@H]([C@@H](C)CC)OC(=O)[C@H](C(C)(C)O)N(C)C(=O)[C@H](CC(C)C)NC(=O)[C@H](C(C)C)N(C)C1=O [Compound 9] (cyclo(F[X27]PI[NMeV]L[NMeVal(β-OH)][Hmp(2R,3S)][NMeV])) | > 64 | > 64 | 1 | > 64 | > 64 | 1 | > 64 | > 64 | – | – | > 64 | > 64 | > 64 | > 64 | 0.25 | 1 (≈ 0.815 µM) | 0.12 | 0.12 | 0.25 | 0.25
